According to ChEMBL document CHEMBL5620419, “Discovery of new Lenalidomide derivatives as potent and selective GSPT1 degraders” (Eur J Med Chem, 2023):
The source made the active and inactive calls. No cut-off for these calls is given here.

Key:
[1] = target: T1, Protein cereblon/Eukaryotic peptide chain release factor GTP-binding subunit ERF3A (Homo sapiens) (UniProt Q96SW2+P15170); assay: (§1) PROTAC activity at CRBN/GSPT1 in human U-937 cells assessed as degradation of GSPT1 measured after 6 hrs by Western blot analysis; assay type: cell-based; details: dose <= 300.0 nM
[2] = target: Protein cereblon/Eukaryotic peptide chain release factor GTP-binding subunit ERF3A (Homo sapiens, UniProt P15170+Q96SW2); assay: as §1; assay type: cell-based
[3] = system: U-937; assay: Antiproliferative activity against human U-937 cells measured after 72 hrs by CCK-8 method; assay type: functional, cell-based; details: U-937, 72 h
[4] = system: MOLT-4; assay: Antiproliferative activity against human MOLT-4 cells measured after 72 hrs by CCK-8 method; assay type: functional, cell-based; details: MOLT-4, 72 h
[5] = target: T1, Protein cereblon/Eukaryotic peptide chain release factor GTP-binding subunit ERF3A (Homo sapiens); assay: PROTAC activity at CRBN/GSPT1 in human U-937 cells assessed as degradation of GSPT1 at 300 nM measured after 6 hrs by Western blot analysis relative to control; assay type: cell-based
[6] = target: T1, Protein cereblon/Eukaryotic peptide chain release factor GTP-binding subunit ERF3A (Homo sapiens); assay: PROTAC activity at CRBN/GSPT1 in human U-937 cells assessed as degradation of GSPT1 at 100 nM measured after 4 to 24 hrs by Western blot analysis; assay type: cell-based; details: time 4-24 hrs
[7] = target: T1, Protein cereblon/Eukaryotic peptide chain release factor GTP-binding subunit ERF3A (Homo sapiens); assay: PROTAC activity at CRBN/GSPT1 in human U-937 cells assessed as half life measured upto 24 hrs in presence of cycloheximide by Western blot analysis; assay type: cell-based
[8] = target: T1, Protein cereblon/Eukaryotic peptide chain release factor GTP-binding subunit ERF3A (Homo sapiens); assay: PROTAC activity at CRBN/GSPT1 in human MOLT-4 cells assessed as degradation of GSPT1 at upto 300 nM by Western blot analysis; assay type: cell-based
[9] = target: T1, Protein cereblon/Eukaryotic peptide chain release factor GTP-binding subunit ERF3A (Homo sapiens); assay: PROTAC activity at CRBN/GSPT1 in human MV4-11 cells assessed as degradation of GSPT1 at upto 300 nM by Western blot analysis; assay type: cell-based
[10] = target: T1, Protein cereblon/Eukaryotic peptide chain release factor GTP-binding subunit ERF3A (Homo sapiens); assay: PROTAC activity at CRBN/GSPT1 in human U-937 cells assessed as induction of GSPT1 degradation preincubated with MG132 for 2 hrs followed by compound addition and measured after 6 hrs by Western blot analysis; assay type: cell-based
[11] = target: T1, Protein cereblon/Eukaryotic peptide chain release factor GTP-binding subunit ERF3A (Homo sapiens); assay: PROTAC activity at CRBN/GSPT1 in human U-937 cells assessed as induction of GSPT1 degradation preincubated with MLN4924 for 2 hrs followed by compound addition and measured after 6 hrs by Western blot analysis; assay type: cell-based
[12] = target: T1, Protein cereblon/Eukaryotic peptide chain release factor GTP-binding subunit ERF3A (Homo sapiens); assay: PROTAC activity at CRBN/GSPT1 in human U-937 cells assessed as increase in ubiquitination of GSPT1 at 100 nM preincubated with MG-132 for 2 hrs followed by compound treatment and measured after 24 hrs by coimmunoprecipitation analysis; assay type: cell-based
[13] = target: Cereblon/Ikaros (Homo sapiens) (UniProt Q96SW2+Q13422); assay: PROTAC activity at CRBN/IKZF1 in human U-937 cells at upto 300 nM by Western blot analysis; assay type: cell-based
[14] = target: Cereblon/Casein kinase I alpha (Homo sapiens) (UniProt P48729+Q96SW2); assay: PROTAC activity at CRBN/CK1alpha in human U-937 cells at upto 300 nM by Western blot analysis; assay type: cell-based
[15] = system: U-937; assay: Induction of cell cycle arrest in human U-937 cells assessed as accumulation of cells at G0/G1 phase at 10 nM measured after 24 hrs by propidium iodide staining based flow cytometry analysis (reference value: 61.09%); assay type: functional
[16] = system: U-937; assay: Induction of cell cycle arrest in human U-937 cells assessed as accumulation of cells at S phase at 10 nM measured after 24 hrs by propidium iodide staining based flow cytometry analysis (reference value: 6.38%); assay type: functional
[17] = system: U-937; assay: Induction of cell cycle arrest in human U-937 cells assessed as accumulation of cells at S phase at 30 nM measured after 24 hrs by propidium iodide staining based flow cytometry analysis (reference value: 6.38%); assay type: functional
[18] = system: U-937; assay: Induction of cell cycle arrest in human U-937 cells assessed as accumulation of cells at G2/M phase at 100 nM measured after 24 hrs by propidium iodide staining based flow cytometry analysis (reference value: 32.33%); assay type: functional
[19] = system: U-937; assay: Induction of apoptosis in human U-937 cells assessed as viable cells at 100 nM measured after 24 hr by Annexin V-FITC/7AAD staining based flow cytometry (reference value: 93.55%); assay type: functional; details: read-out: Activity
[20] = system: U-937; assay: Induction of apoptosis in human U-937 cells assessed as early apoptotic cells at 30 nM measured after 24 hr by Annexin V-FITC/7AAD staining based flow cytometry (reference value: 1.44%); assay type: functional
[21] = system: U-937; assay: Induction of apoptosis in human U-937 cells assessed as early apoptotic cells at 100 nM measured after 24 hr by Annexin V-FITC/7AAD staining based flow cytometry (reference value: 1.44%); assay type: functional
[22] = system: U-937; assay: Induction of apoptosis in human U-937 cells assessed as late apoptotic cells at 30 nM measured after 24 hr by Annexin V-FITC/7AAD staining based flow cytometry (reference value: 1.49%); assay type: functional
[23] = system: U-937; assay: Induction of apoptosis in human U-937 cells assessed as necrotic cells at 10 nM measured after 24 hr by Annexin V-FITC/7AAD staining based flow cytometry (reference value: 3.52%); assay type: functional
[24] = system: U-937; assay: Induction of apoptosis in human U-937 cells assessed as necrotic cells at 100 nM measured after 24 hr by Annexin V-FITC/7AAD staining based flow cytometry (reference value: 3.52%); assay type: functional
[25] = system: U-937; assay: Upregulation of cleaved caspase-3 level in human U-937 cells measured after 24 hrs by Western blot analysis; assay type: functional, cell-based; details: dose 10-100 nM
[26] = Downregulation of K1C10 level in human U-937 cells assessed as fold change at 0.1 uM measured after 6 hrs; assay type: functional
[27] = Downregulation of K2C1 level in human U-937 cells assessed as fold change at 0.1 uM measured after 6 hrs; assay type: functional
[28] = Downregulation of AMPN level in human U-937 cells assessed as fold change at 0.1 uM measured after 6 hrs; assay type: functional
[29] = Downregulation of RNT2 level in human U-937 cells assessed as fold change at 0.1 uM measured after 6 hrs; assay type: functional
[30] = Downregulation of AIMP2 level in human U-937 cells assessed as fold change at 0.1 uM measured after 6 hrs; assay type: functional
[31] = Downregulation of TIM9 level in human U-937 cells assessed as fold change at 0.1 uM measured after 6 hrs; assay type: functional
[32] = Downregulation of SCAM2 level in human U-937 cells assessed as fold change at 0.1 uM measured after 6 hrs; assay type: functional
[33] = Downregulation of SEC13 level in human U-937 cells assessed as fold change at 0.1 uM measured after 6 hrs; assay type: functional
[34] = Downregulation of SRP72 level in human U-937 cells assessed as fold change at 0.1 uM measured after 6 hrs; assay type: functional
[35] = Cmax in oral dosed Sprague-Dawley rat; assay type: ADME, organism-based; details: in vivo
[36] = AUC (0 to t) in oral dosed Sprague-Dawley rat; assay type: ADME, organism-based; details: in vivo
[37] = AUC (0 to t) in ip dosed Sprague-Dawley rat; assay type: ADME, organism-based; details: in vivo
[38] = Half life in ip dosed Sprague-Dawley rat; assay type: ADME, organism-based; details: in vivo

T1 sequence (P15170 whole entry, looked up): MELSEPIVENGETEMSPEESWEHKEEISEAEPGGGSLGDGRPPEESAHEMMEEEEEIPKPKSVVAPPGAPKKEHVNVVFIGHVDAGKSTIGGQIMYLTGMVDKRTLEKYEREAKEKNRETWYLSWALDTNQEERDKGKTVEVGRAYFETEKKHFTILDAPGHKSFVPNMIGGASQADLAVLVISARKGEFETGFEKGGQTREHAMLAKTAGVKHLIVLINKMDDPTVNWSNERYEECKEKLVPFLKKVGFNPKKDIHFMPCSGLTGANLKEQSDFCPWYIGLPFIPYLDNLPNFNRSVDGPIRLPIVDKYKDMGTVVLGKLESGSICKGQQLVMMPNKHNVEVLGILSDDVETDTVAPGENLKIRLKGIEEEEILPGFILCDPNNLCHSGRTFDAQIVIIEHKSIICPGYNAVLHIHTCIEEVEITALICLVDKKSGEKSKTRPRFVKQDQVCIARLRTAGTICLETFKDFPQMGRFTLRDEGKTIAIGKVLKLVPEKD
T1 sequence (Q96SW2 whole entry, looked up): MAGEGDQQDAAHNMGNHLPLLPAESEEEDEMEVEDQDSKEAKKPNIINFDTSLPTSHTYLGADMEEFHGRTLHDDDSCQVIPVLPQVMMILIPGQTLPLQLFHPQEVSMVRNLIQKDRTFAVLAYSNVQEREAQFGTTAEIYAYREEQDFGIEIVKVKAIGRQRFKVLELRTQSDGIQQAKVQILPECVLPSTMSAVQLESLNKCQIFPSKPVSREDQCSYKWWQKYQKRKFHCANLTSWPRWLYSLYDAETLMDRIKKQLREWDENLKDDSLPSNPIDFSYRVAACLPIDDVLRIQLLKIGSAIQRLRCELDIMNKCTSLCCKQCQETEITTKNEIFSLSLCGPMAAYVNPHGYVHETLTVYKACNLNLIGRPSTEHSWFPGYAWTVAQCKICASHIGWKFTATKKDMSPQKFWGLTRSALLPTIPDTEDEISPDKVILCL
Chain of Cereblon/Casein kinase I alpha (Homo sapiens) (P48729 2-337 limits assumed): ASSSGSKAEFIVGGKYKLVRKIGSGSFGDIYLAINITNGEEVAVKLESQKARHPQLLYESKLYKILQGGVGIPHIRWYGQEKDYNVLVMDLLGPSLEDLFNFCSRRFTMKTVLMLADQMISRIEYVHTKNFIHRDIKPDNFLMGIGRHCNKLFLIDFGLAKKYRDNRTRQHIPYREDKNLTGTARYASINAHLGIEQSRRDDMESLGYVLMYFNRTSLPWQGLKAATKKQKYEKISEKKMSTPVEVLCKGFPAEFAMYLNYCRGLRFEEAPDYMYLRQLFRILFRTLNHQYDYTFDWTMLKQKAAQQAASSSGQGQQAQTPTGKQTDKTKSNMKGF
Chain of Cereblon/Casein kinase I alpha (Homo sapiens) (Q96SW2 whole entry partner): as the sequence (Q96SW2 whole entry, looked up) above
Chain of Protein cereblon/Eukaryotic peptide chain release factor GTP-binding subunit ERF3A (Q96SW2 whole entry): as the sequence (Q96SW2 whole entry, looked up) above
Chain of Protein cereblon/Eukaryotic peptide chain release factor GTP-binding subunit ERF3A (P15170 whole entry): as the sequence (P15170 whole entry, looked up) above

COCCN(C)Cc1cc(NC(=O)CCc2ccc3c(c2)C(=O)N(C2CCC(=O)NC2=O)C3)cc(Cl)c1C (stereo not drawn)
Activity [1]: Dose-Dependent Effect | EC50 [2]: 35 nM | IC50 [3]: 19 nM | IC50 [4]: 6 nM | Emax [5]: 81.7% | Activity [6]: Active | T1/2 [7]: 6.3 h | Activity [8]: Active | Activity [9]: Active | Activity [10]: inactive | Activity [11]: inactive | Activity [12]: Active | Activity [13]: inactive | Activity [14]: inactive | Activity [15]: 50.22% | Activity [16]: 8.87% | Activity [17]: 9.99% | Activity [18]: 20.68% | viability at 0.1 µM [19]: 44.9% | Activity [20]: 14.2% | Activity [21]: 23.01% | Activity [22]: 14.45% | Activity [23]: 2.73% | Activity [24]: 5.5% | Activity [25]: Dose-Dependent Effect | log(activity) [26]: -9.04 | log(activity) [27]: -5.03 | log(activity) [28]: -3.63 | log(activity) [29]: -3.36 | log(activity) [30]: -3.32 | log(activity) [31]: -3.32 | log(activity) [32]: -3.32 | log(activity) [33]: -3.32 | log(activity) [34]: -3.32 | Cmax [35]: 671 ng/mL | AUC(0-t) [36]: 1050 ng·h/mL | AUC(0-t) [37]: 8160 ng·h/mL | half-life [38]: 1.25 h
